Data as given in article PMC9220922, “Givinostat-Liposomes: Anti-Tumor Effect on 2D and 3D Glioblastoma Models and Pharmacokinetics” (Cancers, 2022).

Legend:
Gli36ΔEGFR-2 = assay: MTT cytotoxicity, GBM cells; format: cell-based; conditions: Homo sapiens, 24 h of treatment, read-out: mean calculated IC50
Method: (§1) Gli36ΔEGFR-2 and U87-MG were used as GBM in vitro models. Gli36ΔEGFR [27, 28], carrying the EGFRvIII mutation, was made resistant to TMZ after 1 month of in vitro exposure to 50 µM TMZ [29]. These cells were selected because the TMZ sensitivity was repeatedly tested in vitro and in vivo in orthotopic GBM models. Both Gli36ΔEGFR-2 and U87-MG were maintained in Dulbecco’s Modified Eagle Medium (DMEM) High Glucose w/o sodium pyruvate (ECM0101L, Euroclone, Milan, Italy) supplemented with 10% fetal bovine serum (FBS, ECS0180L, Euroclone, Milan, Italy), 4 mM L-glutamine (ECB3000D, Euroclone, Milan, Italy), and 100 U ml^−1 penicillin/streptomycin (P/S) (ECB3001B, Euroclone, Milan, Italy). Normal human astrocytes (NHAs, CC-2565, Lonza, Basel, Switzerland) were used as healthy astrocytes and maintained in AGM^TM Astrocyte Growth Medium BulletKit^TM (CC-3186, Lonza) as per the manufacturer’s protocol. Human cerebral microvascular endothelial cells (hCMECs), provided by Dr. S. Bourdoulous (Institut Cochin, Inserm, Paris, France), were used as a model of brain endothelial cells and cultured as reported in the literature. […]
(§2) The effect of free or encapsulated Givinostat was assessed by the MTT assay. […] At the designated times, the assay was performed as per the manufacturer’s protocol and absorbance was measured at 570 nm using a microplate reader (SPECTROstar Nano, BMG LABTECH, Ortenberg, Germany). […]

[1] = Brain penetration after i.v. injection (LC-MS/MS); format: in vivo, Swiss CD1 mice; conditions: mice
Method: (§3) Mice were sacrificed at different time points up to 48 h after the injection and blood and brain were harvested. Blood was collected from the cava vein in tubes coated with Li-heparin anticoagulant and centrifuged at +4 °C, 3000 g for 10 min to obtain the plasma. After blood collection, brain was harvested, washed in saline, dried on absorbent paper, weighed, and placed into appropriate tubes. All samples were analyzed for their Givinostat content using the LC-MS/MS method. Stock solution of Givinostat, […]2375 (metabolites), and internal standard ITF2400 were prepared in ACN/water 1:1 at 1 mg/mL. Working solutions were prepared by sequential dilution in water:ACN 8:2. Brains were homogenized in 20 mM ammonium formate buffer (1 g/5 mL). In total, 45 μL of blank plasma or brain homogenates was added to 200 μL of ACN containing ITF2400 at 25 ng/mL and acted as internal standards. Samples were vortexed for 3 min and centrifuged for 10 min at 5 °C at […]. Samples were transferred into a 96-well plate, dried under nitrogen flow, and resuspended in 200 μL 0.1% FA H2O/ACN (75:25). After vortexing, samples were injected into LC-MS/MS. Samples were analyzed on a UPLC Acquity (Waters, Milford, MA, USA) coupled with an API 3200 Triple Quadrupole (ABSciex). Mobile phases were water and ACN with 0.1% FA on a Kinetex 2.6 μm C18 100 A 75 × 3 mm (Phenomenex, Torrance, CA, USA). Analytes were quantified in MRM ESI positive mode. […] Pharmacokinetic parameters were calculated using Excel Add in (PK Solver 2.0, Excel 2007 Microsoft add in). AUCs were calculated using an NCA by the linear trapezoidal rule, and a uniform weight was performed as a first approach. Graphical concentration-time curves were produced after Log transformation. The ke was estimated from the terminal part of the log-concentration-time plot including at least three data points excluding the Cmax.

[2] = MTT cytotoxicity, healthy astrocytes; format: cell-based; conditions: human, normal human astrocytes (NHA), doses between 0.1 and 10 μM, read-out: cell viability
Method: as §1, §2

[3] = Plasma pharmacokinetics after i.v. injection (LC-MS/MS); format: in vivo; conditions: Swiss CD1, mouse, iv, mice
Method: as §3

VLDLR = assay: Immunoblot of receptor level in Gli36ΔEGFR-2; format: cell-based, human; conditions: Western blot; Figure 8 legend: LIP-GIV
Method: (§4) Whole cell lysates were obtained by washing cells twice in cold PBS and harvesting in 60 μL of radioimmunoprecipitation assay (RIPA) buffer (cat. no. 89901, ThermoFisher) supplemented with 1% of protease and phosphatase inhibitor cocktail (cat. no. 78446, ThermoFisher). Whole cell lysates were quantified using a BCA Protein Assay Kit (cat. No. 23227, ThermoFisher) and separated by electrophoresis through precast gels (NuPAGE^TM 4–12% Bis-Tris, 1.0 mm, Mini Protein Gel 10 or 15-wells, cat. No. NP0321 and NP0323, ThermoFisher).
(§5) Proteins were transferred to nitrocellulose membranes using iBlot^TM Transfer Stack (cat. No. IB301002, ThermoFisher) and membranes were blocked either in 5% milk or in 5% BSA in TBS with 0.1% Tween-20 (TBST) for 1 h. Membranes were then incubated overnight at 4 °C with the following primary antibodies: Acetyl-α-Tubulin (5335, 1:1000), α-Tubulin (2144, 1:1000), Histone H3 (9715, 1:1000) and β-Tubulin (2146, 1:1000) purchased from CST; β-Actin (MA5-15739, 1:5000), GAPDH (MA1-16757, 1:5000), VLDLR (MA5-24790, 1:1000), ABCA1 (PA1-16789, 1:500), LRP1 (MA1-27198, 1:500), and LDLR (PA5-22976, 1:1000) purchased from ThermoFisher. Membranes were incubated with secondary anti-rabbit antibody (A0545, 1:5000, Merck) or anti-mouse antibody (G21040, 1:20,000, Invitrogen) for 1 h at RT. Bands were detected using Immobilion ECL Ultra Western HRP Substrate (WBULS0100, Merck) under chemiluminescence using an Amersham Imager 600 (Cytiva, Marlborough MA, USA). Quantifications were made using ImageLab Software Version 6.1 (Bio-Rad, www.bio-rad.com).

LRP1 = assay: Immunoblot of receptor level in Gli36ΔEGFR-2; format: cell-based, human; conditions: Western blot; Figure 8 legend: LIP-GIV
Method: as §4, §5

LDLR = assay: Immunoblot of receptor level in Gli36ΔEGFR-2; format: cell-based, human; conditions: Western blot; Figure 8 legend: LIP-GIV
Method: as §4, §5

ABCA1 = assay: Immunoblot of ABCA1 level in Gli36ΔEGFR-2; format: cell-based, human; conditions: Western blot; Figure 8 legend: LIP-GIV, 24 h
Method: as §4
Proteins were transferred to nitrocellulose membranes using iBlot^TM Transfer Stack (cat. No. IB301002, ThermoFisher) and membranes were blocked either in 5% milk or in 5% BSA in TBS with 0.1% Tween-20 (TBST) for 1 h. […] Bands were detected using Immobilion ECL Ultra Western HRP Substrate (WBULS0100, Merck) under chemiluminescence using an Amersham Imager 600 (Cytiva, Marlborough MA, USA). Quantifications were made using ImageLab Software Version 6.1 (Bio-Rad, www.bio-rad.com).

T98G = test system: T98G; parameters: method as in PMID 25053824; conditions: cited from earlier work
U87-MG = test system: U87-MG; parameters: method as in PMID 25053824; conditions: cited from earlier work

CCN(CC)Cc1ccc2cc(COC(=O)Nc3ccc(C(=O)NO)cc3)ccc2c1 [Givinostat, [6-diethylaminomethyl) naphtalen-2-yl] methyl N-[4-(hydroxycarbamoyl) phenyl] carbamate]
IC50 (Gli36ΔEGFR-2): 0.75 µM
Kp ([1]; Swiss CD1, mouse, brain and plasma, iv, 7.5 mg/kg single i.v., read-out: AUCbrain/AUCplasma ratio): 0.372
concentration at 5 min ([1]; Swiss CD1, mouse, brain, iv, 7.5 mg/kg i.v., 5 min, read-out: Givinostat brain level): 102 ng/g
concentration at 10 min ([1]; Swiss CD1, mouse, brain, iv, 7.5 mg/kg i.v., 10 min, read-out: Givinostat brain level): 101 ng/g
concentration at 0.25 h ([1]; Swiss CD1, mouse, brain, iv, 7.5 mg/kg i.v., 0.25 h, read-out: Givinostat brain level): 90 ng/g
concentration at 0.5 h ([1]; Swiss CD1, mouse, brain, iv, 7.5 mg/kg i.v., 0.5 h, read-out: Givinostat brain level): 83 ng/g
concentration at 1 h ([1]; Swiss CD1, mouse, brain, iv, 7.5 mg/kg i.v., 1 h, read-out: Givinostat brain level): 44 ng/g
concentration at 2 h ([1]; Swiss CD1, mouse, brain, iv, 7.5 mg/kg i.v., 2 h, read-out: Givinostat brain level): 30 ng/g
concentration at 4 h ([1]; Swiss CD1, mouse, brain, iv, 7.5 mg/kg i.v., 4 h, read-out: Givinostat brain level): 13 ng/g
concentration at 6 h ([1]; Swiss CD1, mouse, brain, iv, 7.5 mg/kg i.v., 6 h, read-out: Givinostat brain level): 7 ng/g
Cmax ([1]; Swiss CD1, mouse, brain, iv, 7.5 mg/kg single i.v.): ~100 ng/g
Givinostat brain level ([1]; 7.5 mg/kg i.v., 24 h): below detection limits
viability at 24 h [2]: ≥ 100%
concentration at 5 min ([3]; 7.5 mg/kg i.v., 5 min, read-out: Givinostat plasma level): 1030 ng/mL
concentration at 10 min ([3]; 7.5 mg/kg i.v., 10 min, read-out: Givinostat plasma level): 597 ng/mL
concentration at 0.25 h ([3]; 7.5 mg/kg i.v., 0.25 h, read-out: Givinostat plasma level): 431 ng/mL
concentration at 0.5 h ([3]; 7.5 mg/kg i.v., 0.5 h, read-out: Givinostat plasma level): 256 ng/mL
concentration at 1 h ([3]; 7.5 mg/kg i.v., 1 h, read-out: Givinostat plasma level): 75 ng/mL
concentration at 2 h ([3]; 7.5 mg/kg i.v., 2 h, read-out: Givinostat plasma level): 19 ng/mL
concentration at 4 h ([3]; 7.5 mg/kg i.v., 4 h, read-out: Givinostat plasma level): 6 ng/mL
concentration at 6 h ([3]; 7.5 mg/kg i.v., 6 h, read-out: Givinostat plasma level): 4 ng/mL
MRT last ([3]; 7.5 mg/kg single i.v., read-out: mean residence time (MRT0-t)): 0.6 h
clearance ([3]; 7.5 mg/kg single i.v., read-out: plasma clearance (CL) (converted)): 257 mL/min/kg
AUC(0-t) ([3]; 7.5 mg/kg single i.v., read-out: plasma exposure (AUC0-t)): 478 ng·h/mL
Vd ([3]; 7.5 mg/kg single i.v., read-out: volume of distribution): 10.8 L/kg
half-life ([3]; Givinostat 7.5 mg/kg single i.v., read-out: half-life (t1/2) (converted)): 1.7 h
VLDLR protein level (VLDLR): significantly reduced
LRP1 protein level (LRP1): significantly reduced
LDLR protein level (LDLR): significantly reduced
ABCA1 expression (ABCA1): non-significant trend towards a decrease

Cn1nnc2c(C(N)=O)ncn2c1=O [TMZ, temozolomide]
IC50 (T98G): 100 to 500 µM
IC50 (U87-MG): 100 to 500 µM
